Measurements published in the NIST ThermoML archive (doi:10.1021/acs.jced.6b00273).

Test: mn = molality of the nth substance listed, in mol/kg
Conditions: 101.33 kPa, Liquid; for viscosity: Capillary tube (Ostwald / Ubbelohde) method; for mass density: Vibrating tube method

[Cl-].[Na+] [sodium chloride] + O
Conditions | mass density, m1 = 0.1 [kg/m3] | mass density, m1 = 0.25 [kg/m3] | mass density, m1 = 0.5 [kg/m3] | mass density, m1 = 0.75 [kg/m3] | mass density, m1 = 1 [kg/m3] | viscosity, m1 = 0.1 [mPa·s] | viscosity, m1 = 0.25 [mPa·s] | viscosity, m1 = 0.5 [mPa·s] | viscosity, m1 = 0.75 [mPa·s] | viscosity, m1 = 1 [mPa·s]
288.15 K | 1003.33 | 1009.78 | – | 1029.45 | 1039.16 | 1.15 | 1.16 | 1.178 | 1.214 | 1.254
298.15 K | 1001.12 | 1007.29 | – | 1026.12 | 1036.18 | 0.901 | 0.91 | 0.932 | 0.959 | 0.991
308.15 K | 998.046 | 1003.48 | – | 1023.12 | 1032.47 | 0.728 | 0.74 | 0.756 | 0.78 | 0.812
318.15 K | 994.175 | 999.875 | 1009.78 | 1018.94 | 1028.31 | 0.605 | 0.61 | 0.63 | 0.65 | 0.676

Cn1c(=O)c2c(ncn2C)n(C)c1=O [caffeine] + O
Conditions | mass density, 288.15 K [kg/m3] | mass density, 298.15 K [kg/m3] | mass density, 308.15 K [kg/m3] | mass density, 318.15 K [kg/m3] | viscosity, 288.15 K [mPa·s] | viscosity, 298.15 K [mPa·s] | viscosity, 308.15 K [mPa·s] | viscosity, 318.15 K [mPa·s]
m1 = 0.00508 | – | – | – | – | 1.14 | 0.895 | 0.723 | 0.599
m1 = 0.0051 | 999.404 | 997.304 | 994.303 | 990.464 | – | – | – | –
m1 = 0.00693 | – | – | – | – | 1.142 | 0.896 | 0.724 | 0.6
m1 = 0.00695 | 999.505 | 997.399 | 994.39 | 990.545 | – | – | – | –
m1 = 0.009 | – | – | – | – | 1.144 | 0.896 | 0.724 | 0.601
m1 = 0.00902 | 999.619 | 997.504 | 994.488 | 990.637 | – | – | – | –
m1 = 0.01986 | – | – | – | – | 1.147 | 0.9 | 0.728 | 0.606
m1 = 0.01993 | 1000.22 | 998.06 | 995.013 | 991.121 | – | – | – | –
m1 = 0.02978 | – | – | – | – | 1.152 | 0.905 | 0.732 | 0.609
m1 = 0.02992 | 1000.77 | 998.576 | 995.497 | 991.571 | – | – | – | –
m1 = 0.03531 | 1001.07 | 998.853 | 995.759 | 991.812 | – | – | – | –
m1 = 0.03533 | – | – | – | – | 1.154 | 0.907 | 0.735 | 0.611
m1 = 0.03983 | – | – | – | – | 1.156 | 0.91 | 0.737 | 0.613
m1 = 0.04008 | 1001.34 | 999.101 | 996.001 | 992.025 | – | – | – | –
m1 = 0.04953 | – | – | – | – | 1.162 | 0.914 | 0.741 | 0.617
m1 = 0.04992 | 1001.89 | 999.619 | 996.484 | 992.483 | – | – | – | –

Cn1cnc2c1c(=O)[nH]c(=O)n2C [1H-purine-2,6-dione, 3,7-dihydro-3,7-dimethyl-] + O
Conditions | mass density, 288.15 K [kg/m3] | mass density, 298.15 K [kg/m3] | mass density, 308.15 K [kg/m3] | mass density, 318.15 K [kg/m3] | viscosity, 288.15 K [mPa·s] | viscosity, 298.15 K [mPa·s] | viscosity, 308.15 K [mPa·s] | viscosity, 318.15 K [mPa·s]
m1 = 0.00051 | 999.157 | 997.073 | 994.088 | 990.268 | 1.138 | 0.891 | 0.72 | 0.597
m1 = 0.0007 | 999.167 | 997.083 | 994.097 | 990.277 | 1.139 | 0.891 | 0.72 | 0.597
m1 = 0.0009 | 999.177 | 997.093 | 994.107 | 990.287 | 1.139 | 0.891 | 0.72 | 0.597
m1 = 0.00098 | 999.182 | 997.097 | 994.111 | 990.291 | 1.139 | 0.891 | 0.72 | 0.597
m1 = 0.00123 | 999.195 | 997.11 | 994.123 | 990.303 | 1.139 | 0.891 | 0.72 | 0.597
m1 = 0.00147 | – | – | – | – | 1.139 | 0.891 | 0.72 | 0.597
m1 = 0.00148 | 999.209 | 997.123 | 994.135 | 990.314 | – | – | – | –
m1 = 0.00182 | – | – | – | – | 1.139 | 0.891 | 0.72 | 0.597
m1 = 0.00183 | 999.228 | 997.141 | 994.152 | 990.331 | – | – | – | –
m1 = 0.00212 | – | – | – | – | 1.139 | 0.891 | 0.72 | 0.597
m1 = 0.00213 | 999.244 | 997.156 | 994.167 | 990.346 | – | – | – | –

Cn1c(=O)c2[nH]cnc2n(C)c1=O [3,7-dihydro-1,3-dimethyl-1H-purine-2,6-dione] + O
Conditions | mass density, 288.15 K [kg/m3] | mass density, 298.15 K [kg/m3] | mass density, 308.15 K [kg/m3] | mass density, 318.15 K [kg/m3] | viscosity, 288.15 K [mPa·s] | viscosity, 298.15 K [mPa·s] | viscosity, 308.15 K [mPa·s] | viscosity, 318.15 K [mPa·s]
m1 = 0.00208 | 999.241 | 997.153 | 994.165 | 990.343 | – | – | – | –
m1 = 0.00213 | – | – | – | – | 1.139 | 0.891 | 0.719 | 0.597
m1 = 0.00284 | – | – | – | – | 1.139 | 0.892 | 0.72 | 0.597
m1 = 0.00285 | 999.283 | 997.192 | 994.204 | 990.379 | – | – | – | –
m1 = 0.00378 | 999.333 | 997.239 | 994.25 | 990.423 | – | – | – | –
m1 = 0.00394 | – | – | – | – | 1.14 | 0.892 | 0.72 | 0.598
m1 = 0.00479 | 999.388 | 997.291 | 994.3 | 990.472 | – | – | – | –
m1 = 0.00519 | – | – | – | – | 1.14 | 0.892 | 0.721 | 0.598
m1 = 0.00578 | 999.443 | 997.341 | 994.35 | 990.519 | – | – | – | –
m1 = 0.00617 | – | – | – | – | 1.141 | 0.893 | 0.722 | 0.599
m1 = 0.00689 | – | – | – | – | 1.141 | 0.893 | 0.722 | 0.599
m1 = 0.00699 | 999.509 | 997.404 | 994.41 | 990.578 | – | – | – | –
m1 = 0.00776 | 999.551 | 997.443 | 994.448 | 990.614 | – | – | – | –
m1 = 0.00819 | – | – | – | – | 1.142 | 0.894 | 0.723 | 0.599
m1 = 0.00921 | – | – | – | – | 1.142 | 0.895 | 0.723 | 0.6
m1 = 0.00934 | 999.638 | 997.526 | 994.528 | 990.691 | – | – | – | –
m1 = 0.00986 | 999.667 | 997.554 | 994.554 | 990.716 | – | – | – | –
